Here are results for 43 compounds from patent US8859543B2, “Imidazo[1,2-a]pyrazine derivatives and their use for the prevention or treatment of neurological, psychiatric and metabolic disorders and diseases” (Janssen Pharmaceutica NV, priority 2010, dated 2014).

Assay [1] deals with apomorphine-induced stereotypy. Description: Apomorphine-induced stereotypy in rats (APO). The note with it: Rattus norvegicus. The assay is classed as in vivo. The method, then: Apomorphine-Induced Stereotypy in Rats (APO)
Apomorphine (1.0 mg/kg, i.v.)-induced stereotypy (compulsive sniffing, licking, chewing) was scored every 5 min. over the first hour after injection of apomorphine, following a 1 hour interval pre-treatment with the test compound. The score system was: (3) pronounced, (2) moderate, (1) slight, and (O) absent.

The target in assay [2] is T1, Rat recombinant PDE10A (rPDE10A2) (Rattus norvegicus, UniProt Q9QYJ6).
T1 construct: made in house; host or cells: Sf9 insect cells, baculovirus
T1 sequence (Q9QYJ6 1-794): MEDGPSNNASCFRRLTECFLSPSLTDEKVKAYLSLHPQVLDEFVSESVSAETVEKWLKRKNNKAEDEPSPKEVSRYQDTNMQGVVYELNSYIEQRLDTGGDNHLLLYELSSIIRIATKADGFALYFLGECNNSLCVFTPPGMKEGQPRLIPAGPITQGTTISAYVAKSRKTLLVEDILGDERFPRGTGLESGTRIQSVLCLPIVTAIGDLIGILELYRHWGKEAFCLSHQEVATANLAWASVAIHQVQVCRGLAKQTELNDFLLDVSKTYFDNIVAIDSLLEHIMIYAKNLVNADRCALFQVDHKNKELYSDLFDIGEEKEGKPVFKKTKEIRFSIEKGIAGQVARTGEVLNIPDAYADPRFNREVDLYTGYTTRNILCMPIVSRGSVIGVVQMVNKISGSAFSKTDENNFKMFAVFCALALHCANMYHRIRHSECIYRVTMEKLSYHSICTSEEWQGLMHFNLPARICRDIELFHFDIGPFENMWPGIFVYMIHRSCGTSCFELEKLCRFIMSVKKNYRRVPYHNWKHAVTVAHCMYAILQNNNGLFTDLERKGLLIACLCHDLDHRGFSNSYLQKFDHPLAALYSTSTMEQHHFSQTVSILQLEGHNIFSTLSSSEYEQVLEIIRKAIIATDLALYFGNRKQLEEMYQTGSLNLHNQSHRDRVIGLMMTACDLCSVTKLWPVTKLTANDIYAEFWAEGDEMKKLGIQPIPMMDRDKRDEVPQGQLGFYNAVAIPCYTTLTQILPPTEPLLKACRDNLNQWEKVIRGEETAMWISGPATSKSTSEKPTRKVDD
Description: In vitro assay PDE10A (SPA, 3H-cAMP). It counts as biochemical. The note with it: pIC50 corresponds to the -log IC50 expressed in mol/L; read-out: PDE10A2 pIC50 (converted). The method, then: Rat recombinant PDE10A (rPDE10A2) was expressed in Sf9 cells using a recombinant rPDE10A baculovirus construct. Cells were harvested after 48 h of infection and the rPDE10A protein was purified by metal chelate chromatography on Ni-sepharose 6FF. Tested compounds were dissolved and diluted in 100% DMSO to a concentration 100 fold of the final concentration in the assay. Compound dilutions (0.4 μl) were added in 384 well plates to 20 μl of incubation buffer (50 mM Tris pH 7.8, 8.3 mM MgCl2, 1.7 mM EGTA). 10 μl of rPDE10A enzyme in incubation buffer was added and the reaction was started by addition of 10 μl substrate to a final concentration of 60 nM cAMP and 0.008 μCi ^3H-cAMP. The reaction was incubated for 60 min. at RT. […] After sedimentation of the beads during 30 min. the radioactivity was measured in a Perkin Elmer Topcount scintillation counter and results were expressed as cpm. For blank values the enzyme was omitted from the reaction and replaced by incubation buffer. Control values were obtained by addition of a final concentration of 1% DMSO instead of compound. The same assay principle is applied for the measurement of the affinity of the compound for other members of the PDE family with appropriate modifications in incubation buffer, substrate concentration, incubation time and stop solution.

[3] abbreviates: not active at 2.5 or at 10 mg/kg, not further tested, read-out: APO ED50 (not active at threshold dose).

Where two headings read alike, the source gives them in different places.

As usually defined, the ED50 is the midpoint of the dose-response relation. Turning to `Cc1nc2c(N3CCOCC3)nccn2c1-c1ccc(CCO)nc1` [compound 18, 2-[5-(2-Methyl-8-morpholin-4-yl-imidazo[1,2-a]pyrazin-3-yl)-pyridin-2-yl]-ethanol], the ED50 in assay [1] (setting [3]) was more than 2.5 mg/kg. In the case of `COCCc1ccc(-c2c(C3CC3)nc3c(N4CCOCC4)nccn23)cn1` [compound 10, 2-Cyclopropyl-3-[6-(2-methoxy-ethyl)-pyridin-3-yl]-8-morpholin-4-yl-imidazo[1,2-a]pyrazine], the ED50 in assay [1] (read-out: APO ED50) came out at 1.2 mg/kg. For the compound `Cc1nc2c(N3CCOCC3)nccn2c1-c1cnn(CCOC(C)C)c1` [compound 127], the IC50 in assay [2] is 457 nM. With `Cc1nc2c(-c3ccncc3)nccn2c1-c1cnn(CC2CCCCO2)c1` (single isomer, unassigned) [compound 80], the IC50 in assay [2] is 112 nM. With `COCCn1cc(-c2c(C)nc3c(N4CCOCC4)nc(C4CC4)cn23)cn1` [compound 37, 6-Cyclopropyl-3-[1-(2-methoxy-ethyl)-1H-pyrazol-4-yl]-2-methyl-8-morpholin-4-yl-imidazo[1,2-a]pyrazine], the IC50 in assay [2] was 490 nM. Take `Cc1nc2c(N3CCOCC3)nccn2c1-c1cnn(CC2CC2(F)F)c1` (single isomer, unassigned) [compound 64]: the IC50 in assay [2] is 83.2 nM. As to `Cc1nc2c(N3CCOCC3)nccn2c1-c1ccc(NC(C)C)nc1` [compound 103], the ED50 in assay [1] (setting [3]) was more than 2.5 mg/kg. Turning to `CCOCCc1ccc(-c2c(C)nc3c(N4CCOCC4)nccn23)cn1` [compound 20, 3-[6-(2-Ethoxy-ethyl)-pyridin-3-yl]-2-methyl-8-morpholin-4-yl-imidazo[1,2-a]pyrazine], the ED50 in assay [1] (read-out: APO ED50) was found to be 1.2 mg/kg. Still for that read-out and setting: next, `Cc1nc2c(N3CCOCC3)nccn2c1-c1coc(CC(C)C)n1` [compound 41, 3-(2-Isobutyl-oxazol-4-yl)-2-methyl-8-morpholin-4-yl-imidazo[1,2-a]pyrazine]: 5 mg/kg; `Cc1nc2c(N3CCOCC3)nccn2c1-c1ccc(CCOC(C)C)nc1` [compound 21, 3-[6-(2-Isopropoxy-ethyl)-pyridin-3-yl]-2-methyl-8-morpholin-4-yl-imidazo[1,2-a]pyrazine]: 1.2 mg/kg. For the compound `Cc1nc2c(N3CCOCC3)nccn2c1-c1cc[nH]c1` [compound 43, 2-Methyl-8-morpholin-4-yl-3-(1H-pyrrol-3-yl)-imidazo[1,2-a]pyrazine], the IC50 in assay [2] was 871 nM. On to `COCCCc1ccc(-c2c(C)nc3c(N4CCOCC4)nccn23)cn1` [compound 6, 3-[6-(3-Methoxy-propyl)-pyridin-3-yl]-2-methyl-8-morpholin-4-yl-imidazo[1,2-a]pyrazine], for which the ED50 in assay [1] (read-out: APO ED50) is not above 2.5 mg/kg. As to `Cc1nc2c(-c3ccncc3)nccn2c1-c1cnn(CC2CCCCO2)c1` (single isomer, unassigned) [compound 92], in assay [2], the IC50 was 135 nM. The same measure, in the same setting: next, `Cc1nc2c(N3CCOCC3)nccn2c1-c1cnn(CCCF)c1` [compound 86]: 123 nM. Regarding `COC(C)(C)Cc1ccc(-c2c(C)nc3c(N4CCOCC4)nccn23)cn1` [compound 7, 3-[6-(2-Methoxy-2-methyl-propyl)-pyridin-3-yl]-2-methyl-8-morpholin-4-yl-imidazo[1,2-a]pyrazine], the ED50 in assay [1] (read-out: APO ED50) was 1.2 mg/kg. Take `CCOCCn1cc(-c2c(C)nc3c(-c4ccncc4)nccn23)cn1` [compound 128]: the IC50 in assay [2] was 468 nM. Regarding `CCc1nc2c(N3CCOCC3)nccn2c1-c1cnn(CCOC)c1` [compound 100], the ED50 in assay [1] (read-out: APO ED50) is 5 mg/kg. `COCCOc1ccc(-c2c(C)nc3c(-c4ccncc4)nccn23)cn1` [compound 132]: the IC50 in assay [2] is 537 nM. With `CCc1ccc(-c2c(C3CC3)nc3c(N4CCOCC4)nccn23)cn1` [compound 66], the IC50 in assay [2] is 85.1 nM. As for `Cc1nc2c(N3CCOCC3)nccn2c1-c1cnn(CC(=O)C2CC2)c1` [compound 98], the IC50 in assay [2] was 145 nM. Same read-out and setting: next, `COC(Cn1cc(-c2c(C)nc3c(N4CCOCC4)nccn23)cn1)C(C)C` (single isomer, unassigned) [compound 54]: 56.2 nM; `Cc1nc2c(-c3ccncc3)nccn2c1-c1cnn(CCN2CCOCC2)c1` [compound 126]: 457 nM.

Regarding `CCOCc1ccc(-c2c(C)nc3c(N4CCOCC4)nccn23)cn1` [compound 5, 3-(6-Ethoxymethyl-pyridin-3-yl)-2-methyl-8-morpholin-4-yl-imidazo[1,2-a]pyrazine], the ED50 in assay [1] (setting [3]) is more than 2.5 mg/kg. `COC(C)(C)COc1ccc(-c2c(C)nc3c(-c4ccncc4)nccn23)cn1` [compound 2, 3-[6-(2-Methoxy-2-methyl-propoxy)-pyridin-3-yl]-2-methyl-8-pyridin-4-yl-imidazo[1,2-a]pyrazine]: the IC50 in assay [2] was 708 nM. Regarding `CO[C@H]1CCN(c2ccc(-c3c(C)nc4c(N5CCOCC5)nccn34)cn2)C1` [compound 24, (S)-3-[6-(3-Methoxy-pyrrolidin-1-yl)-pyridin-3-yl]-2-methyl-8-morpholin-4-yl-imidazo[1,2-a]pyrazine], the ED50 in assay [1] (setting [3]) was more than 2.5 mg/kg.

For `CC(=O)Cn1cc(-c2c(C)nc3c(N4CCOCC4)nccn23)cn1` [compound 117], in assay [2], the IC50 was 309 nM. For `Cc1nc2c(N3CCOCC3)nccn2c1-c1cnn(CC2CC2(F)F)c1` (single isomer, unassigned) [compound 47], the IC50 in assay [2] is 28.2 nM. Same read-out and setting: the result for `COC[C@H](C)n1cc(-c2c(C)nc3c(N4CCOCC4)nccn23)cn1` [compound 75] reads 100 nM; that for `Cc1cc(-c2c(C)nc3c(N4CCOCC4)nccn23)ccn1` [compound 133], 550 nM; that for `Cc1nc2c(N3CCOCC3)nccn2c1-c1cnn(C2CCOC2)c1` (single isomer, unassigned) [compound 109], 178 nM.

For `Cc1nc2c(N3CCOCC3)nccn2c1-c1cnn(CC2CCCCO2)c1` (stereo not shown) [compound 73], the IC50 in assay [2] is 95.5 nM. Consider `Cc1nc2c(N3CCOCC3)nccn2c1-c1cnn(C2CCOC2)c1` (single isomer, unassigned) [compound 88], for which, in assay [2], the IC50 is 132 nM. As for `Cc1nc2c(-c3ccncc3)nccn2c1-c1ccc(OCC(F)(F)F)nc1` [compound 129], the IC50 in assay [2] is 501 nM. The same measure, in the same setting: the result for `Cc1nc2c(N3CCOCC3)nccn2c1-c1cnc(N2CCOCC2)nc1` [compound 85] reads 120 nM. Still for that read-out and setting: next, `COCCn1cc(-c2c(OC)nc3c(N4CCCC4)nccn23)cn1` [compound 131]: 537 nM; `CCOCCn1cc(-c2c(C)nc3c(N4CCOCC4)nccn23)cn1` [compound 93]: 135 nM. Still for that read-out and setting: the result for `COCCn1cc(-c2c(OC)nc3c(N4CCOCC4)nccn23)cn1` [compound 137] reads 631 nM.

As for `COCCn1cc(-c2c(C)nc3c(N4CCOCC4)nc(CCC(F)(F)F)cn23)cn1` [compound 39, 3-[1-(2-Methoxy-ethyl)-1H-pyrazol-4-yl]-2-methyl-8-morpholin-4-yl-6-(3,3,3-trifluoro-propyl)-imidazo[1,2-a]pyrazine], in assay [2], the IC50 was 933 nM. The same measure, in the same setting: next, `COC(Cn1cc(-c2c(C)nc3c(N4CCOCC4)nccn23)cn1)C(C)C` (single isomer, unassigned) [compound 59]: 74.1 nM; `COC(C)(C)Cc1ccc(-c2c(C3CC3)nc3c(N4CCOCC4)nccn23)cn1` [compound 60]: 75.9 nM. Still for that read-out and setting: next, `COc1ncc(-c2c(C)nc3c(N4CCOCC4)nccn23)cn1` [compound 32, 3-(2-Methoxy-pyrimidin-5-yl)-2-methyl-8-morpholin-4-yl-imidazo[1,2-a]pyrazine]: 479 nM; `Cc1nc2c(N3CCOCC3)nccn2c1-c1ccc(-c2ccc(F)cc2)nc1` [compound 139]: 776 nM. For the compound `Cc1nc2c(N3CCOCC3)nccn2c1-c1ccc(CCN2CCCC2)nc1` [compound 140], the IC50 in assay [2] was 871 nM.
